Results reported in patent US6750228B1, “Aromatic sulfone hydroxamic acid metalloprotease inhibitor” (priority 1997, dated 2004).
Structures can show the parent of a compound that is named as a salt. Where two headings read alike, the source gives them in different places.

What was measured:
Experiment in all cases: biochemical
MMP-2 = target: T1, MMP-2 (Homo sapiens, UniProt P08253)
T1 construct: made in house; provided by Dr. Gregory Goldberg, Washington University
T1 sequence (P08253 110-660): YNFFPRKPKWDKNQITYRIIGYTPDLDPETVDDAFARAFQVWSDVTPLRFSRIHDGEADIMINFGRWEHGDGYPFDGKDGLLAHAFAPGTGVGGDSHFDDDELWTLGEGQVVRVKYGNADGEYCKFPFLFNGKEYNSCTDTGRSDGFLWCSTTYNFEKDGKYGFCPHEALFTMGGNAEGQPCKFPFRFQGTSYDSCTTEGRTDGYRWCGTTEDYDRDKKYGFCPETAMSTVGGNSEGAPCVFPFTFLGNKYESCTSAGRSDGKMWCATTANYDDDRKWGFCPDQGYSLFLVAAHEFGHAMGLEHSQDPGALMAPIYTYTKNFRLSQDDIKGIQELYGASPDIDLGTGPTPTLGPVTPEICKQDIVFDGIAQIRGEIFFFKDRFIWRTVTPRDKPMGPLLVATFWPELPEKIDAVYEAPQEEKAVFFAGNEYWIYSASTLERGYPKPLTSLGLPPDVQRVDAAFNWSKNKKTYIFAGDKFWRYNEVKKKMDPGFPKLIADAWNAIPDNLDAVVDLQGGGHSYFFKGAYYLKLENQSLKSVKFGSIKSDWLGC
Summary of the method: (§1)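 APMA- or trypsin-activated enzymes were preincubated with inhibitor for 5 min at room temperature, then the fluorogenic substrate MCA-Pro-Leu-Gly-Leu-Dpa-Ala-Arg-NH2 was added to a final 4 μM.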

MMP-1 = target: T2, MMP-1 (Homo sapiens, UniProt P03956); settings: read-out: MMP-1 IC50
T2 construct: made in house; host or cells: transfected HT-1080 cells (provided by Dr. Harold Welgus, Washington University)
T2 sequence (P03956 100-469): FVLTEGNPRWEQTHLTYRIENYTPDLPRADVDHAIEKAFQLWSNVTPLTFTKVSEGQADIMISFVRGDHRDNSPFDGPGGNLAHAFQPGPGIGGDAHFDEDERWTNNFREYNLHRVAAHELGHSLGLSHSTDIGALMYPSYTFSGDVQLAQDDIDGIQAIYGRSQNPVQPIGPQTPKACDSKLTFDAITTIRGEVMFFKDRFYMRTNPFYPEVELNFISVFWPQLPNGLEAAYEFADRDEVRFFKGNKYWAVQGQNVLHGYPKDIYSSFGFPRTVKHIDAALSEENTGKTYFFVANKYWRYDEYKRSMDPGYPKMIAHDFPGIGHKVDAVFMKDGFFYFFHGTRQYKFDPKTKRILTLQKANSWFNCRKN
Summary of the method: as §1

MMP-13 = target: T3, MMP-13 (Homo sapiens, UniProt P45452)
T3 construct: made in house; host or cells: baculovirus / insect cells
Summary of the method: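 Assay buffer 100 mM Tris-HCl, 100 mM NaCl, 10 mM CaCl2, pH 7.5. Activated MMP + inhibitor, 5 min RT; then methoxycoumarin peptide substrate, 4 μM final. Readout fluorescence; IC50 calculated.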

[1] = recombinant human MMP-2, MCA peptide substrate 4 μM, pH 7.5, room temperature, read-out: MMP-2 IC50
[2] = recombinant human MMP-1, MCA peptide substrate 4 μM, pH 7.5, room temperature
[3] = recombinant human MMP-13, MCA peptide substrate 4 μM, pH 7.5, room temperature, read-out: MMP-13 IC50

| IC50 (MMP-2; [1]) [nM] | IC50 (MMP-1; [2]) [nM] | IC50 (MMP-13; [3]) [nM] | Compound | IC50 (MMP-1) [nM] | IC50 (MMP-2; read-out: MMP-2 IC50) [nM] | IC50 (MMP-13; read-out: MMP-13 IC50) [nM] | IC50 (MMP-2; MMP-2 IC50 (nM)) [nM] | IC50 (MMP-13; MMP-13 IC50 (nM), recombinant human MMP-13, MCA peptide substrate 4 μM, pH 7.5, room temperature) [nM] |
| --- | --- | --- | --- | --- | --- | --- | --- | --- |
| < 0.1 | 3000 | 0.2 | O=C(NO)C1(S(=O)(=O)c2ccc(Oc3ccc(OC(F)(F)F)cc3)cc2)CCN(C(=S)NCCN2CCCCC2)CC1 [Example 200] |  |  |  |  |  |
| 0.2 | > 10000 | 0.3 | O=C(NO)C1(S(=O)(=O)c2ccc(Oc3ccc(OC(F)(F)F)cc3)cc2)CCN(C(=S)Nc2cccnc2)CC1 [Example 201] |  |  |  |  |  |
| 0.2 | > 10000 | 0.4 | CN(C)c1ccc(NC(=S)N2CCC(C(=O)NO)(S(=O)(=O)c3ccc(Oc4ccc(OC(F)(F)F)cc4)cc3)CC2)cc1 [Example 202] |  |  |  |  |  |
| 130 | > 10000 | 50 | O=C(NO)C1(S(=O)(=O)c2ccc(N3CCCCC3)cc2)CCOCC1 [Example 209] |  |  |  |  |  |
| 4.5 | 4000 | 5.4 | O=C(NO)C1(S(=O)(=O)c2ccc(N3CC=CCC3)cc2)CCOCC1 [Example 210] |  |  |  |  |  |
| 240 | > 10000 | 160 | O=C(NO)C1(S(=O)(=O)c2ccc(N3CCCCCC3)cc2)CCOCC1 [Example 212] |  |  |  |  |  |
| 2700 | > 10000 | 1400 | CN1CCCN(c2ccc(S(=O)(=O)C3(C(=O)NO)CCOCC3)cc2)CC1 [Example 213] |  |  |  |  |  |
| 0.1 | > 10000 | 0.18 | Cc1ccc(N2CCC(C(=O)NO)(S(=O)(=O)c3ccc(Oc4ccc(OC(F)(F)F)cc4)cc3)CC2)cc1 [Example 229, N-Hydroxy-1-(4-methylphenyl)-4-[[4-[4-(trifluoromethoxy)phenoxy]phenyl]sulfonyl]-4-piperidinecarboxamide Monohydrochloride] |  |  |  |  |  |
| 5300 | > 10000 | 235 | COCCN1CCC(C(=O)NO)(S(=O)(=O)c2ccc(N3CCC(C(=O)N(C)CCc4ccccn4)CC3)cc2)CC1 [Example 235, 1-[4-[[4[(Hydroxyamino)carbonyl]-1-(2-methoxyethyl)-4-piperidinyl]sulfonyl]phenyl]-N-methyl-N-[2-(2-pyridinyl)ethyl]-4-piperidinecarboxamide, Dihydrochloride] |  |  |  |  |  |
| 1900 | > 10000 | 13 | COCCN1CCC(C(=O)NO)(S(=O)(=O)c2ccc(N3CCC(C(=O)NCCCc4ccccc4)CC3)cc2)CC1 [Example 237, N-Hydroxy-1-(2-methoxyethyl)-4-[[4-[4-[[(3-phenylpropyl)amino]carbonyl]-1-piperidinyl]-phenyl]sulfonyl]-4-piperidinecarboxamide, Monohydrochloride] |  |  |  |  |  |
| 1500 | > 10000 | 42.5 | COCCN1CCC(C(=O)NO)(S(=O)(=O)c2ccc(N3CCC(C(=O)NC4Cc5ccccc5C4)CC3)cc2)CC1 [Example 242, 4-[[4-[4-[[(2,3-Dihydro-1H-inden-2-yl)amino]carbonyl]-1-piperidinyl]phenyl]sulfonyl]-N-hydroxy-1-(2-methoxyethyl)-4-piperidinecarboxamide, Monohydrochloride] |  |  |  |  |  |
| 420 | > 10000 | 11.3 | O=C(Nc1ccccc1)C1CCN(c2ccc(S(=O)(=O)C3(C(=O)NO)CCN(C4CC4)CC3)cc2)CC1 [Example 243, 1-Cyclopropyl-N-hydroxy-4-[[4-[4-[(phenylamino)carbonyl]-1-piperidinyl]phenyl]sulfonyl]-4-piperidinecarboxamide, Monohydrochloride] |  |  |  |  |  |
| 4400 | > 10000 | 67.4 | COCCN1CCC(C(=O)NO)(S(=O)(=O)c2ccc(N3CCC(C(=O)N(C)c4ccccc4)CC3)cc2)CC1 [Example 244, 1-[4-[[4-[(Hydroxyamino)carbonyl]-1-(2-methoxyethyl)-4-piperidinyl]-sulfonyl]phenyl]-N-methyl-N-phenyl-4-piperidinecarboxamide, Monohydrate] |  |  |  |  |  |
| 800 | > 10000 | 20 | CC(=O)N1CCC(C(=O)NO)(S(=O)(=O)c2ccc(N3CCC(C(=O)Nc4ccccc4)CC3)cc2)CC1 [Example 245, 1-Acetyl-N-hydroxy-4-[[4-[4-[(phenylamino)carbonyl]-1-piperidinyl]phenyl]sulfonyl]-4-piperidinecarboxamide] |  |  |  |  |  |
| 1600 | > 10000 | 34.5 | COCCN1CCC(C(=O)NO)(S(=O)(=O)c2ccc(N3CCC(C(=O)NCc4ccccc4)CC3)cc2)CC1 [Example 247, N-Hydroxy-1-(2-methoxyethyl)-4-[[4-[4-[[(phenylmethyl)amino]carbonyl]-1-piperidinyl]phenyl]-sulfonyl]-4-piperidinecarboxamide, Monohydrochloride] |  |  |  |  |  |

Continued, compound first:

| Compound | IC50 (MMP-2; [1]) [nM] | IC50 (MMP-1; [2]) [nM] | IC50 (MMP-13; [3]) [nM] | IC50 (MMP-1) [nM] | IC50 (MMP-2; read-out: MMP-2 IC50) [nM] | IC50 (MMP-13; read-out: MMP-13 IC50) [nM] | IC50 (MMP-2; MMP-2 IC50 (nM)) [nM] | IC50 (MMP-13; MMP-13 IC50 (nM), recombinant human MMP-13, MCA peptide substrate 4 μM, pH 7.5, room temperature) [nM] |
| --- | --- | --- | --- | --- | --- | --- | --- | --- |
| O=C(NO)C1(S(=O)(=O)c2ccc(N3CCC(c4ccccc4C(F)(F)F)CC3)cc2)CCOCC1 [Example 207] | 900 | > 10000 | 28.8 |  |  |  |  |  |
| O=C(NO)C1(S(=O)(=O)c2ccc(N3CC=C(c4ccccc4C(F)(F)F)CC3)cc2)CCOCC1 [Example 208] | 1000 | > 10000 | 110 |  |  |  |  |  |
| O=C(NO)C1(S(=O)(=O)c2ccc(N3CCC(n4c(=O)[nH]c5ccccc54)CC3)cc2)CCOCC1 [Example 211] | 1200 |  | 11.4 | > 10000 |  |  |  |  |
| CC1(C)CC2CC(C)(CN2c2ccc(S(=O)(=O)C3(C(=O)NO)CCOCC3)cc2)C1 (stereo not drawn) [Example 214] | 3500 | > 10000 | 4900 |  |  |  |  |  |
| O=C(CS(=O)(=O)c1ccc(Oc2ccncc2)cc1)NO [Example 227] | 21.7 | > 10000 | 28.8 |  |  |  |  |  |
| O=C(NO)C1(S(=O)(=O)c2ccc(Oc3ccc(SC(F)(F)F)cc3)cc2)CCNCC1 [Example 231, N-Hydroxy-4-[[4-[4-[(trifluoromethyl)thio]phenoxy]phenyl]-sulfonyl]-4-piperidinecarboxamide, Monohydrochloride] | 0.1 | > 10000 | 0.2 |  |  |  |  |  |
| COCCN1CCC(C(=O)NO)(S(=O)(=O)c2ccc(N3CCC(C(=O)N4CC(C)CC(C)C4)CC3)cc2)CC1 (stereo not drawn) [Example 233, 4-[[4-[4-[(3,5-Dimethyl-1-piperidinyl)carbonyl]-1-piperidinyl]-phenyl]sulfonyl]-N-hydroxy-1-(2-methoxyethyl)-4-piperidinecarboxamide, Monohydrochloride] |  |  |  | > 10000 | 2050 | 43.5 |  |  |
| COCCN1CCC(C(=O)NO)(S(=O)(=O)c2ccc(N3CCC(C(=O)Nc4ccccc4)CC3)cc2)CC1 [Example 236, N-Hydroxy-1-(2-methoxyethyl)-4-[[4-[4-[(phenylamino)carbonyl]-1-piperidinyl]phenyl]-sulfonyl]-4-piperidinecarboxamide Monohydrochloride)] |  | > 10000 |  |  |  |  | 400 | 9 |
| C[C@@H]1C[C@H](C)CN(C(=O)C2CCN(c3ccc(S(=O)(=O)C4(C(=O)NO)CCN(C(=O)OC(C)(C)C)CC4)cc3)CC2)C1 [Example 241, rel-1,1-Dimethylethyl 4-[[4-[4-[[(3R,5S)-3,5-Dimethyl-1-piperidinyl]carbonyl]-1-piperidinyl]-phenyl]sulfonyl]-4-[(hydroxyamino)carbonyl]-1-piperidinecarboxylate] | > 10000 | > 10000 | 4.8 |  |  |  |  |  |
| COCCN1CCC(C(=O)NO)(S(=O)(=O)c2ccc(N3CCC(C(=O)N4CCc5ccccc54)CC3)cc2)CC1 [Example 246, 4-[[4-[4-[(2,3-Dihydro-1H-indol-1-yl)carbonyl]-1-piperidinyl]-phenyl]sulfonyl]-N-hydroxy-1-(2-methoxyethyl)-4-piperidinecarboxamide, Monohydrate] | 2700 | > 10000 | 32.7 |  |  |  |  |  |
